Assay results as given in patent US20130184462A1, “METHOD FOR PREDICTING AND MODELING ANTI-PSYCHOTIC ACTIVITY USING VIRTUAL SCREENING MODEL” (COUNCIL OF SCIENTIFIC & INDUSTRIAL RESEARCH, priority 2010, published 2013).

What follows are molecules tested on amphetamine induced hyperactivity mice model (assay: Amphetamine induced hyperactivity mouse model). Details: in-vitro and in-vivo evaluation, FIGS. 3 and 4.
Protocol: The animals were housed in plastic polypropylene cages under standard animal house conditions with a 12 hours light/dark cycle and temperature of 25±2° C.
The mice randomly grouped in batches of seven animals per group. The basal motor activity (distance traveled) of each mouse was recorded individually using automated activity monitor (TSE, Germany). After basal activity recording, a group of seven animals were challenged with amphetamine [5.5 mg/kg, intra peritoneal (i.p) dissolved in normal saline]. After 30 min. amphetamine injection, motor activity was recorded for individual animal for 5 min.
The difference in motor activity as indicated by distance traveled in animals with amphetamine alone treated and animals with samples plus amphetamine challenge was recorded as inhibition in hyper activity caused by amphetamine and data presented as percent inhibition in amphetamine induced hyperactivity.

SMILES | antipsychotic activity in-vitro and in-vivo
COC(=O)C1C(OC(C)=O)CCC2CN3CCc4c([nH]c5ccccc45)C3CC21 (stereo not drawn) [K001A, 17-O-acetyl α-yohimbine] | potential antipsychotic activity
COC(=O)C1C(OC(=O)c2cccc([N+](=O)[O-])c2)CCC2CN3CCc4c([nH]c5ccccc45)C3CC21 (stereo not drawn) [K001C, 17-O-(3″)-nitrobenzoyl α-yohimbine] | potential antipsychotic activity
COC(=O)C1C(OC(=O)c2ccc([N+](=O)[O-])cc2)CCC2CN3CCc4c([nH]c5ccccc45)C3CC21 (stereo not drawn) [K001E, 17-O-(4″)-nitrobenzoyl-α-yohimbine] | potential antipsychotic activity
COC(=O)C1C(OC(=O)C=Cc2ccccc2)CCC2CN3CCc4c([nH]c5ccccc45)C3CC21 (stereo not drawn) [K001F, 17-O-cinnamoyl α-yohimbine] | potential antipsychotic activity
